Literature values in patent US6159733A, “Method for photoinactivating malignant cells” (priority 1996, dated 2000).
Where two headings read alike, the source gives them in different places.

Experiments:
[1] = test system: pluripotent stem cells; settings: Sieber, Photochem Photobiol. 46:71 (1987); cited from earlier work
[2] = test system: CFU-GM; settings: cited from earlier work
[3] = test system: cancer cell; settings: conditions of the CFU-GM/BFU-E survival data; cited from earlier work
[4] = test system: cell lines in BM mixtures; settings: cited from earlier work
[5] = test system: malignant cells; settings: cited from earlier work
[6] = test system: BFU-E; settings: cited from earlier work
[7] = test system: multidrug resistance (mdr) pump; settings: cited from earlier work
[8] = test system: cell types; settings: cited from earlier work
[9] = Atzpodien, Cancer Res. 46:4892 (1986)

In the case of `CCCCN1C(=O)C(=CC=CC=C2Oc3ccccc3N2CCCS(=O)(=O)O)C(=O)N(CCCC)C1=S` [MC 540, merocyanine-540], the “depletion of murine pluripotent stem cells” value [1] is given as 1 log10, the “surviving fraction of CFU-GM” value [2, 9] is given as 0.18 and the “surviving fraction of CFU-GM” value ([2]; Gulliya, Blood 73:1059 (1989)) is given as 0.17. For the same compound, the “reduction of cancer cell survival” value [3] was 4-5 log10, the “photoinactivation of cell lines mixed with BM” value ([4]; BM fraction=0.95-0.99) was “more effectively inactivated in mixtures” and the “photoinactivation of malignant cells” value [5] was “successfully achieved”. The “surviving fraction of BFU-E” value [6, 9] was 0.14 and the “surviving fraction of BFU-E” value ([6]; Gulliya, Blood 73:1059 (1989)) was 0.04.

For `COc1ccc(CCN(C)CCCC(C#N)(c2ccc(OC)c(OC)c2)C(C)C)cc1OC` (stereo not drawn) [verapamil], the “inhibition of the multidrug resistance (mdr) pump” value [7] is listed as “known inhibitor”.

In the case of Photofrin, the “relation of uptake and photosensitivity” value ([8]; Williams, Photochem. Photobiol. 46:733 (1987)) is given as “increased uptake resulted in increased photosensitivity for each cell type” and the “differences in photoinactivation between cell types” value ([8]; despite significant differences in photosensitizer uptake) is given as “marginal differences in photoinactivation”.

For “benzoporphyrinderivative monoacid ring A [BPD-MA]”, the “surviving fraction of CFU-GM” value ([2]; cfu-gm) is listed as 0.04, the “reduction of cancer cell survival” value [3] is listed as 4-5 log10 and the “surviving fraction of BFU-E” value ([6]; bfu-e) is listed as 0.05.

For dihematoporphyrin ether [DHE], the “surviving fraction of CFU-GM” value ([2]; Atzpodien, Blood 70:484 (1987)) is given as 0.29, the “surviving fraction of CFU-GM” value ([2]; Lemoli, Blood 81:793 (1993)) is given as 0.05 and the “reduction of cancer cell survival” value [3] is given as 4-5 log10. The “photoinactivation of malignant cells” value [5] was “successfully achieved”, the “surviving fraction of BFU-E” value ([6]; Atzpodien, Blood 70:484 (1987)) was 0.47 and the “surviving fraction of BFU-E” value ([6]; Lemoli, Blood 81:793 (1993)) was 0.10.

In the case of “sulphonate aluminum phthalocyanine [AlSPc]”, the “surviving fraction of CFU-GM” value ([2]; cfu-gm) is given as 0.60, the “reduction of cancer cell survival” value [3] is given as 4-5 log10 and the “photoinactivation of cell lines mixed with BM” value ([4]; BM fraction=0.99) is given as “photoinactivated as effectively as unmixed cell lines”. For the same compound, the “photoinactivation of malignant cells” value [5] was “successfully achieved”.
